According to patent publication US6737383B1, “Herbicidal oxadiazolidines” (priority 1999, dated 2004):

Columns and labels:
blackgrass = test: Test B pre/postemergence blackgrass; type: in vivo, Alopecurus myosuroides
Procedure, shortened: (§1)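 Response is a visual 0-to-10 score relative to untreated plants, where 0 means no effect and 10 means complete control, taken twelve to sixteen days after application. Treatments went onto soil at planting and onto foliage of 1- to 4-leaf plants, using a surfactant-containing non-phytotoxic solvent.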

surinam grass = test: Test B pre/postemergence surinam grass; type: in vivo, Brachiaria decumbens
Procedure, shortened: as §1

cocklebur = test: Test B pre/postemergence cocklebur; type: in vivo, Xanthium strumarium
Procedure, shortened: as §1

corn = test: Test B pre/postemergence corn; type: in vivo, Zea mays
Procedure, shortened: as §1

crabgrass = test: Test B pre/postemergence crabgrass; type: in vivo, Digitaria sanguinalis
Procedure, shortened: as §1

giant foxtail = test: Test B pre/postemergence giant foxtail; type: in vivo, Setaria faberii
Procedure, shortened: as §1

morningglory = test: Test B pre/postemergence morningglory; type: in vivo, Ipomoea hederacea
Procedure, shortened: as §1

rape = test: Test B pre/postemergence rape; type: in vivo, Brassica napus
Procedure, shortened: as §1

soybean = test: Test B pre/postemergence soybean; type: in vivo, Glycine max
Procedure, shortened: as §1

sugar beet = test: Test B pre/postemergence sugar beet; type: in vivo, Beta vulgaris
Procedure, shortened: as §1

velvetleaf = test: Test B pre/postemergence velvetleaf; type: in vivo, Abutilon theophrasti
Procedure, shortened: as §1

wheat = test: Test B pre/postemergence wheat; type: in vivo, Triticum aestivum
Procedure, shortened: as §1

wild oat = test: Test B pre/postemergence wild oat; type: in vivo, Avena fatua
Procedure, shortened: as §1

purple nutsedge = test: Test B pre/postemergence purple nutsedge; type: in vivo, Cyperus rotundus
Procedure, shortened: as §1

smallflower flatsedge = test: Test B flood test smallflower flatsedge; type: in vivo, Cyperus difformis
Procedure, shortened: (§2)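 Each value is a visual injury score relative to controls, with 10 meaning complete control and 0 no effect. Evaluation took place twelve to sixteen days after the 2-leaf-stage plants were treated and kept in the greenhouse.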

duck salad = test: Test B flood test duck salad; type: in vivo, Heteranthera limosa
Procedure, shortened: as §2

[1] = Postemergence, Rate 62 g/ha, scale 0 to 10, 0 is no effect, 10 is complete control
[2] = Postemergence, Rate 125 g/ha, scale of 0 to 10 where 0 is no effect and 10 is complete control
[3] = Postemergence, Rate 250 g/ha, scale of 0 to 10, 0 is no effect, 10 is complete control
[4] = Postemergence, Rate 500 g/ha, scale of 0 to 10 where 0 is no effect and 10 is complete control
[5] = Preemergence, Rate 62 g/ha, scale of 0 to 10 where 0 is no effect and 10 is complete control
[6] = Preemergence, Rate 125 g/ha, scale of 0 to 10 where 0 is no effect and 10 is complete control
[7] = Preemergence, Rate 250 g/ha, scale 0 to 10 (0 no effect, 10 complete control)
[8] = Preemergence, Rate 500 g/ha, scale of 0 to 10 where 0 is no effect and 10 is complete control
[9] = Rate 62 g/ha, flood test species, Pre-emergence, visual evaluation after twelve to sixteen days
[10] = Rate 125 g/ha, under heading Pre-emergence, flood test species, visual evaluation after twelve to sixteen days
[11] = Rate 250 g/ha, Pre-emergence (flood test species), scale 0 to 10, 0 is no effect, 10 is complete control
[12] = Rate 500 g/ha, Pre-emergence section of Table B, 0 to 10 scale (0 no effect, 10 complete control)

CC(C)N(C(=O)n1oc(=O)n(Cc2nnc(Cl)s2)c1=O)c1ccc(F)cc1F [Compound 645]
Plant response rating, Blackgrass (blackgrass; [1]): 0
Blackgrass plant response rating (blackgrass; [2]): 0
Blackgrass plant response rating (blackgrass; [3]): 0
Plant response rating, Blackgrass (blackgrass; [4]): 0
Blackgrass plant response rating (blackgrass; [5]): 0
Blackgrass plant response rating (blackgrass; [6]): 0
Plant response rating, Blackgrass (blackgrass; [7]): 0
Plant response rating, Blackgrass (blackgrass; [8]): 0
Plant response rating, B. signalgrass (surinam grass; [1]): 0
Plant response rating, B. signalgrass (surinam grass; [2]): 0
B. signalgrass plant response rating (surinam grass; [3]): 0
Plant response rating, B. signalgrass (surinam grass; [4]): 0
B. signalgrass plant response rating (surinam grass; [5]): 0
B. signalgrass plant response rating (surinam grass; [6]): 0
Plant response rating, B. signalgrass (surinam grass; [7]): 0
Plant response rating, B. signalgrass (surinam grass; [8]): 0
Plant response rating, Cocklebur (cocklebur; [1]): 0
Cocklebur plant response rating (cocklebur; [2]): 0
Cocklebur plant response rating (cocklebur; [3]): 3
Plant response rating, Cocklebur (cocklebur; [4]): 7
Cocklebur plant response rating (cocklebur; [5]): 0
Cocklebur plant response rating (cocklebur; [6]): 0
Plant response rating, Cocklebur (cocklebur; [7]): 0
Plant response rating, Cocklebur (cocklebur; [8]): 0
Plant response rating, Corn (corn; [1]): 0
Corn plant response rating (corn; [2]): 0
Corn plant response rating (corn; [3]): 0
Plant response rating, Corn (corn; [4]): 0
Corn plant response rating (corn; [5]): 0
Corn plant response rating (corn; [6]): 0
Plant response rating, Corn (corn; [7]): 0
Plant response rating, Corn (corn; [8]): 0
Plant response rating, Crabgrass (crabgrass; [1]): 0
Crabgrass plant response rating (crabgrass; [2]): 0
Crabgrass plant response rating (crabgrass; [3]): 0
Plant response rating, Crabgrass (crabgrass; [4]): 3
Crabgrass plant response rating (crabgrass; [5]): 2
Crabgrass plant response rating (crabgrass; [6]): 3
Plant response rating, Crabgrass (crabgrass; [7]): 4
Plant response rating, Crabgrass (crabgrass; [8]): 5
Plant response rating, Giant foxtail (giant foxtail; [1]): 0
Giant foxtail plant response rating (giant foxtail; [2]): 0
Giant foxtail plant response rating (giant foxtail; [3]): 0
Plant response rating, Giant foxtail (giant foxtail; [4]): 2
Giant foxtail plant response rating (giant foxtail; [5]): 1
Giant foxtail plant response rating (giant foxtail; [6]): 2
Plant response rating, Giant foxtail (giant foxtail; [7]): 5
Plant response rating, Giant foxtail (giant foxtail; [8]): 7
Plant response rating, Morningglory (morningglory; [1]): 0
Morningglory plant response rating (morningglory; [2]): 0
Morningglory plant response rating (morningglory; [3]): 1
Plant response rating, Morningglory (morningglory; [4]): 3
Morningglory plant response rating (morningglory; [5]): 0
Morningglory plant response rating (morningglory; [6]): 0
Plant response rating, Morningglory (morningglory; [7]): 0
Plant response rating, Morningglory (morningglory; [8]): 0
Plant response rating, Rape (rape; [1]): 0
Rape plant response rating (rape; [2]): 0
Plant response rating, Rape (rape; [4]): 0
Rape plant response rating (rape; [5]): 0
Rape plant response rating (rape; [6]): 0
Plant response rating, Rape (rape; [7]): 0
Plant response rating, Rape (rape; [8]): 0
Plant response rating, Soybean (soybean; [1]): 1
Soybean plant response rating (soybean; [2]): 1
Soybean plant response rating (soybean; [5]): 0
Soybean plant response rating (soybean; [6]): 0
Plant response rating, Soybean (soybean; [7]): 0
Plant response rating, Soybean (soybean; [8]): 0
Plant response rating, Sugarbeets (sugar beet; [1]): 0
Sugarbeets plant response rating (sugar beet; [2]): 0
Sugarbeets plant response rating (sugar beet; [5]): 0
Sugarbeets plant response rating (sugar beet; [6]): 0
Plant response rating, Sugarbeets (sugar beet; [7]): 0
Plant response rating, Sugarbeets (sugar beet; [8]): 0
Plant response rating, Velvetleaf (velvetleaf; [1]): 0
Velvetleaf plant response rating (velvetleaf; [2]): 0
Velvetleaf plant response rating (velvetleaf; [5]): 0
Velvetleaf plant response rating (velvetleaf; [6]): 0
Plant response rating, Velvetleaf (velvetleaf; [7]): 0
Plant response rating, Velvetleaf (velvetleaf; [8]): 0
Plant response rating, Wheat (wheat; [1]): 0
Wheat plant response rating (wheat; [2]): 0
Wheat plant response rating (wheat; [5]): 0
Wheat plant response rating (wheat; [6]): 0
Plant response rating, Wheat (wheat; [7]): 0
Plant response rating, Wheat (wheat; [8]): 0
Plant response rating, Wild oats (wild oat; [1]): 0
Wild oats plant response rating (wild oat; [2]): 0
Wild oats plant response rating (wild oat; [5]): 0
Wild oats plant response rating (wild oat; [6]): 0
Plant response rating, Wild oats (wild oat; [7]): 0
Plant response rating, Wild oats (wild oat; [8]): 0
Plant response rating, Nutsedge (purple nutsedge; [1]): 0
Nutsedge plant response rating (purple nutsedge; [2]): 0
Nutsedge plant response rating (purple nutsedge; [5]): 0
Nutsedge plant response rating (purple nutsedge; [6]): 0
Plant response rating, Nutsedge (purple nutsedge; [7]): 0
Plant response rating, Nutsedge (purple nutsedge; [8]): 0
Plant response rating, S. Flatsedge (0 to 10 scale, 0 is no effect, 10 is complete control) (smallflower flatsedge; [9]): 0
S. Flatsedge plant response rating (0 to 10 scale, 0 is no effect, 10 is complete control) (smallflower flatsedge; [10]): 0
S. Flatsedge plant response rating (smallflower flatsedge; [11]): 0
S. Flatsedge plant response rating (smallflower flatsedge; [12]): 0
Plant response rating, Ducksalad (0 to 10 scale, 0 is no effect, 10 is complete control) (duck salad; [9]): 0
Ducksalad plant response rating (0 to 10 scale, 0 is no effect, 10 is complete control) (duck salad; [10]): 0
Ducksalad plant response rating (duck salad; [11]): 0
Ducksalad plant response rating (duck salad; [12]): 0
